Assay results as given in patent publication US20140186872A1, “BISACODYL AND ITS ANALOGUES AS DRUGS FOR USE IN THE TREATMENT OF CANCER” (CENTRE NATIONAL DE LA RECHERCHE SCIENTIFIQUE- CNRS, priority 2011, published 2014).
Structures can show the parent of a compound that is named as a salt.

Assays:
[1] = tested on: proliferating TG1 glioblastoma stem cells; experiment: ATP-Glo (Cell Titer Glo) cell viability, dose/response, proliferating TG1 cells; type: cell-based, human; details: for EC50: Homo sapiens, Glioblastoma stem cell, TG1-A P, experimental protocol of Example 12, ATP-Glo; for EC50 / effect on survival of proliferating TG1 cells: 24 h; for effect on survival of proliferating TG1 cells: own culture medium
Procedure: The TG1 proliferating cells correspond to cells for which medium is renewed regularly, twice weekly.
The proliferating cells were put back in 1 mL of fresh NS34 medium, dissociated mechanically by pipetting up and down 100 times with a P1000 micropipette preset to 400 μl and counted with Trypan Blue, after dilution in fresh NS34 medium, to obtain a final suspension of 6×10^5 cells/mL.
(§1) 50 μl of solution containing cells was deposited per well in a 96-well plate (Greiner #655090).
(§2) The test compounds, in solution of 100% of DMSO were diluted in culture medium: in the absence of DMSO (medium 0% DMSO) or in the presence of 2% of DMSO (medium 2% DMSO) at concentrations of 200 μM, 100 μM, 80 μM, 60 μM, 40 μM, 20 μM, 10 μM and 2 μM. For all these dilutions the final concentration in DMSO was 2% (see Table 1 below; volumes shown make it possible to construct dose/response curves, in triplicate, for 1 compound on a 96-well plate—FIG. 1)
50 μL of solution of compound was added at the concentrations specified above to 50 μL of cells in the plate (FIG. 1) (Final concentration of compounds in contact with the cells: 100 μM, 50 μM, 40 μM, 30 μM, 20 μM, 10 μM, 5 μM, 1 μM (in 1% of final DMSO). Final concentration of positive control: 50 μM in 1% of final DMSO. Final concentration of negative control: 1% final DMSO). […]
(§3) The test of cell viability was carried out using the Cell Titer Glo kit (Promega #G7571). After thawing of the Cell Titer Glo reagent (1 Buffer vial+1 Substrate vial per plate) protected from the light, the contents of the Buffer vial were transferred to the Substrate vial. 100 μl of Cell Titer Glo reagent was deposited on the cells treated with the compounds.
(§4) The results, which were given for each well in strokes per second (sps), were converted to percentage cell survival relative to the control 1% of DMSO, which was fixed at 100%.
(§5) The EC50 was determined as the concentration that gives 50% of the response.
(§6) Glioblastoma (WHO grade IV glioma) stem cells (TG1, TG16 and OB1) were derived from tumor samples of 3 patients at Sainte Anne Hospital (Paris, France), as previously described (48) and expanded as neurosphere cultures. In continuously proliferating cultures, neurospheres were mechanically dissociated into a single-cell suspension twice a week with 90% renewal of their culture medium. Quiescent glioblastoma stem cells were obtained by non-renewal of the culture medium for 9-16 days following cell seeding. The non-proliferating state was assessed by decreased ability of the cells to incorporate EdU (5-ethynyl-2′-deoxyuridine) using the Click-iT™ EdU Flow Cytometry Assay Kit (Invitrogen, France) according to the manufacturer's instructions. […]
(§7) Confirmed hit compounds from the primary and secondary screens were purchased from Prestwick Chemical and dissolved in DMSO to obtain 10 mM concentrated stock solutions. Hit compound validation was obtained through dose-response curves on the viability of TG1 glioblastoma stem cells under the same experimental conditions (cell density, treatment duration) as described for the primary and secondary screens. Each compound was tested in triplicate in at least three independent experiments on proliferating and quiescent glioblastoma stem TG1 cells.
(§8) The EC50 value was determined for each compound by fitting the data points according to the following equation: […]
(§9) where y represents the expected response (expressed as a percentage of cell viability), x is the chemical compound concentration, Smax and Smin are the maximum and minimum viability responses recorded, respectively, and n is the Hill coefficient. Curve fitting was performed using the Microsoft Excel Solver component.

[2] = tested on: quiescent TG1 glioblastoma stem cells; experiment: ATP-Glo (Cell Titer Glo) cell viability, dose/response, quiescent TG1 cells; type: cell-based, human; details: 24 h; for EC50: Homo sapiens, Glioblastoma stem cell, TG1-A Q, experimental protocol of Example 12, ATP-Glo, read-out: EC50 Quiescent TG1; for effect on survival of quiescent TG1 cells (words): own conditioned medium
Procedure: The TG1 cells were put into quiescence by keeping the cells in culture without changing the medium from 9 to 16 days. The state of quiescence was verified by non-incorporation of nucleotides into the DNA of the cells (see example 9).
The quiescent cells were put back in 1 mL of conditioned medium, dissociated mechanically by pipetting up and down 100 times with a P1000 micropipette preset to 400 μl and counted with Trypan Blue, after dilution in conditioned medium, to obtain a final suspension of 8.10^5 cells/mL.
as §1, §2
50 μL of solution of compound was added at the concentrations specified above to 50 μL of cells in the plate (FIG. 1) (Final concentration of compounds in contact with the cells: 100 μM, 50 μM, 40 μM, 30 μM, 20 μM, 10 μM, 5 μM, 1 μM (in 1% of final DMSO). Final concentration of positive control: 50 μM in 1% of final DMSO. Final concentration of negative control: 1% final DMSO).
The cells were incubated for 23 to 24 hours at 37° C. in an incubator in the presence of 5% CO2 (under humid atmosphere at 95% provided by a reservoir filled with distilled water).
as §3, §4, §5, §6, §7, §8, §9

[3] = tested on: human fetal neural stem cells (f-NSC cells); experiment: ATP-Glo cell viability on fetal neural stem cells; type: cell-based

Row | SMILES | EC50 [1] | EC50 [2] | further results
1 | Oc1ccc(C(c2ccc(O)cc2)c2cccnc2)cc1 | > 100 µM | 8 ± 3 µM | –
2 | Oc1ccc(C(c2ccncc2)c2ccc(O)cc2)cc1 | > 100 µM | 39 ± 2 µM | –
3 | CC(=O)Oc1ccc(C(c2ccc(O)cc2)c2ccccn2)cc1 (stereo not shown) | > 100 µM | 1 ± 0.5 µM | –
4 | CC(=O)Oc1ccc(C(c2ccc(O[Si](C)(C)C(C)(C)C)cc2)c2ccccn2)cc1 (stereo not shown) | 12 ± 0.1 µM | 12.1 ± 0.6 µM | –
5 | CC(C)(C)[Si](C)(C)Oc1ccc(C(c2ccc(O)cc2)c2ccccn2)cc1 (stereo not shown) | 13 ± 5 µM | 13 ± 3 µM | –
6 | COc1ccc(C(c2ccc(O)cc2)c2ccccn2)cc1 (stereo not shown) | > 100 µM | 8 ± 6 µM | –
7 | C#CCOc1ccc(C(c2ccc(O)cc2)c2ccccn2)cc1 (stereo not shown) | 39 ± 6 µM | 3 ± 1 µM | –
8 | CCCC(C)Oc1ccc(C(c2ccc(O)cc2)c2ccccn2)cc1 (stereo not shown) | 55 ± 8 µM | 40 ± 10 µM | –
9 | CCCCCCCCCOc1ccc(C(c2ccc(OC(C)=O)cc2)c2ccccn2)cc1 (stereo not shown) | 25.5 ± 0.6 µM | 22 ± 2 µM | –
10 | CCCCCCCCCOc1ccc(C(c2ccc(O)cc2)c2ccccn2)cc1 (stereo not shown) | 25 ± 4 µM | 22 ± 3 µM | –
11 | c1ccc(C(c2ccccc2)c2ccccn2)cc1 | > 100 µM | 81.9 µM | –
12 | Nc1ncccc1C(c1ccc(O)cc1)c1ccc(O)cc1 | > 100 µM | 32 ± 2 µM | –
13 | Clc1ccc(C(c2ccc(Cl)cc2)c2ccccn2)cc1 | 34 ± 3 µM | 35.5 ± 4.5 µM | –
14 | Oc1ccc(C(c2ccccc2)c2ccc(O)cc2)cc1 | 60.8 ± 10.4 µM | 14.2 ± 8.8 µM | –
15 | Oc1ccc(C(c2ccccn2)c2ccccc2O)cc1 (stereo not shown) | > 100 µM | 57.6 ± 0.7 µM | –
16 | Oc1ccc(C(c2ccccc2)c2ccccn2)cc1 (stereo not shown) | > 100 µM | 17.1 ± 6.3 µM | –
17 | Oc1ccc(C(c2ccc(Cl)cc2)c2ccccn2)cc1 (stereo not shown) | > 100 µM | 4 ± 1.4 µM | –
18 | Oc1ccc(C(c2ccc(O)cc2)c2cncc(Br)c2)cc1 | > 100 µM | 5 µM | –
19 | Oc1ccc(C(c2ccc(C(F)(F)F)cc2)c2ccccn2)cc1 (stereo not shown) | > 100 µM | 17.3 µM | –
20 | CC(=O)Oc1ccc(C(c2ccc(O)cc2)c2ccccn2)cc1 (racemic) [Compound 3, 4-((4-Hydroxyphenyl)(pyridin-2-yl)methyl)phenyl acetate] | – | – | effect on survival of quiescent TG1 cells (words) [2]: effect similar to that described for bisacodyl; effect on survival / toxicity, f-NSC cells [3]: little or no effect
21 | COc1ccc(C(c2ccc(O)cc2)c2ccccn2)cc1 (racemic) [Compound 6, 4-((4-Methoxyphenyl)(pyridin-2-yl)methyl)phenol] | – | – | effect on survival of quiescent TG1 cells (words) [2]: effect similar to that described for bisacodyl; effect on survival / toxicity, f-NSC cells [3]: little or no effect
22 | C#CCOc1ccc(C(c2ccc(O)cc2)c2ccccn2)cc1 (racemic) [Compound 9, 4-((4-(Prop-2-yn-1-yloxy)phenyl)(pyridin-2-yl)methyl)phenol] | – | – | effect on survival of proliferating TG1 cells [1]: also on the proliferating cells; concentrations causing a considerable decrease in survival of proliferating cells ([1]; proliferating TG1 cells): above 40 μM; effect on survival of quiescent TG1 cells (words) [2]: active on the quiescent cells; concentration from which a large decrease in survival of NSC cells occurs [3]: ≥ 40 µM
23 | O=C(Oc1ccc(C(c2ccc(OC(=O)C(F)(F)F)cc2)c2ccccn2)cc1)C(F)(F)F [Compound 5, (Pyridin-2-ylmethylene)bis(4,1-phenylene)bis(2,2,2-trifluoroacetate)] | – | – | effect on survival of quiescent TG1 cells (words) [2]: effect similar to that described for bisacodyl; effect on survival / toxicity, f-NSC cells [3]: little or no effect
24 | COc1ccc(C(c2ccc(OC(C)=O)cc2)c2ccccn2)cc1 (stereo not shown) [Compound 7, 4-((4-Methoxyphenyl)(pyridin-2-yl)methyl)phenyl acetate] | – | – | effect on survival of quiescent TG1 cells (words) [2]: effect similar to that described for bisacodyl; effect on survival / toxicity, f-NSC cells [3]: little or no effect
25 | CCCCCCCCNC(C)C(O)c1ccc(SC(C)C)cc1 (stereo not shown) [Suloctidil, reference compound] | – | – | effect on survival of proliferating TG1 cells [1]: overlapping cytotoxic activity; effect on survival of quiescent TG1 cells (words) [2]: overlapping cytotoxic activity
26 | OCCN1CCN(CC/C=C2/c3ccccc3Sc3ccc(Cl)cc32)CC1 [Zuclopenthixol HCl, reference compound] | – | – | effect on survival of proliferating TG1 cells [1]: more selective effects
27 | CC(=O)Oc1ccc(C(c2ccc(OC(C)=O)cc2)c2ccccn2)cc1 [drawing 51] | > 100 µM | 1.6 ± 0.3 µM | –
28 | Oc1ccc(C(c2ccc(O)cc2)c2ccccn2)cc1 [drawing 52] | > 100 µM | 1 ± 0.5 µM | –
29 | O=C(Oc1ccc(C(c2ccc(OC(=O)C(F)(F)F)cc2)c2ccccn2)cc1)C(F)(F)F [drawing 57] | > 100 µM | 2 ± 1 µM | –
30 | COc1ccc(C(c2ccc(OC(C)=O)cc2)c2ccccn2)cc1 (stereo not shown) [drawing 60] | > 100 µM | 9 ± 4 µM | –
